According to article PMC7037732, “Synthesis of Combretastatin A-4 and 3′-Aminocombretastatin A-4 derivatives with Aminoacid Containing Pendants and Study of their Interaction with Tubulin and as Downregulators of the VEGF, hTERT and c-Myc Gene Expression” (Molecules, 2020):
Several values for one entry are separate records, joined by “and”; a condition that tells them apart may be missing. Equal entries are not always repeated.

Legend:
A-549 cells = experiment: Cell cycle distribution by flow cytometry; type: cell-based, human
Outline: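 A-549 cells were harvested, fixed in cold 70% ethanol (30 min, −20 °C), then stained with 50 µg/mL propidium iodide plus 100 µg/mL RNase A in PBS for 20 min at room temperature in the dark. Flow cytometry used 488 nm excitation and 620 nm emission, giving the percentage of cells in G2/M.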

purified tubulin = experiment: Critical concentration (CrC) for the assembly of purified tubulin in GAB; type: biochemical; details: compound 27.5 μM, tubulin 25 μM, glycerol (GAB) and GTP assembly buffer; control 7.9 ± 1.2
Description: The effect on the self-assembly of tubulin was determined by measuring the critical concentration (CrC).

[1] = test system: MCF-7 (breast adenocarcinoma); experiment: Inhibition of cell proliferation (MTT), MCF-7; type: cell-based, human; details: Homo sapiens, 48 h of treatment (footnote), average ±SD of three experiments
[2] = test system: HT-29 (human colon adenocarcinoma); experiment: Inhibition of cell proliferation (MTT), HT-29; type: cell-based; details: Homo sapiens, 48 h of treatment (footnote), average ±SD of three experiments
c-Myc gene = c-Myc gene expression by RT-qPCR in HT-29 cells; type: cell-based, human
Description: (§1) The effect on the expression of VEGF, hTERT and c-Myc genes has been studied for CA-4 and its derivatives that show selectivity indexes higher than 0.9 on the HT-29 cell line. The studied derivatives, together with the concentrations to which they have been tested, are CA-4 (15 μM); 4.1 (Gly, 5 μM); 4.5 (L-Pro, 25 μM); 4.9 (L-Met, 25 μM); 6.2 (D-Leu, 25 μM); 6.3 (D-Phe, 25 μM); 6.4 (D-Pro, 25 μM) and 6.5 (D-Ser, 10 μM). The expression of the genes was determined by RT-qPCR methodology, as described in the Materials and Methods section.
(§2) As regards AmCA-4 derivatives, the effect on the expression of the VEGF, hTERT and c-Myc genes has been studied on those that show IC50 in the low nanomolar range on the HT-29 cell line and/or on compounds whose selectivity indexes with respect to this cell line are higher than 1. The studied compounds, together with the concentrations to which they have been tested, are: CA-4 (15 μM), AmCA-4 (15 nM), 7.1 (7 nM), 7.2 (1.5 nM), 7.3 (4 nM), 7.4 (15 nM), 7.5 (2 nM), 7.7 (7 nM), 7.8 (15 nM), 7.9 (30 nM), 8.1 (7 nM), 8.2 (3 nM), 8.3 (10 nM), 8.4 (1.5 nM), 8.5 (4 nM), 8.7 (7 nM), 8.8 (3 nM) and 8.9 (4 nM).
(§3) HT-29 cells at 70–80% confluence were collected, and 1.5 × 10^5 cells were placed in a six-well plate in 1.5 mL of the medium. After 24 h, cells were incubated with the corresponding compounds for 48 h. Cells were collected, and the total cellular RNA from the HT-29 cells was isolated using an Ambion RNA Extraction Kit, according to the manufacturer’s instructions. The cDNA was synthesized by MMLV-RT with […] of extracted RNA and oligo(dT)15, according to the manufacturer’s instructions. Genes were amplified by a thermal cycler and StepOnePlus™ TaqMan® probes. TaqMan® Gene Expression Master Mix Fast, containing the appropriate buffer for the amplification conditions, dNTPs, thermostable DNA polymerase enzyme and a passive reference probe, was used. To amplify each of the genes, the predesigned primers sold by Life Technologies TaqMan® Gene Expression Assays Hs99999903-m1 (β-actin), Hs00900055-m1 (VEGF), Hs00972646-m1 (hTERT) and Hs00153408-m1 (c-Myc) were used.

VEGF gene = VEGF gene expression by RT-qPCR in HT-29 cells; type: cell-based, human
Description: as §1, §2, §3

[3] = Homo sapiens; HT-29, 48 h, 15 nM; control 100
[4] = Homo sapiens; HT-29, 48 h, 15 μM; control (DMSO) 100; normalized to β-actin
[5] = A-549, 24 h, concentration per compound as in Tables 6 and 7
[6] = Homo sapiens, HT-29, 48 h, 5 μM, control 100
[7] = Homo sapiens; HT-29, 48 h, 25 μM; control 100
[8] = HT-29, 48 h; discussion; concentration per compound
[9] = Homo sapiens, HT-29, 48 h, 25 μM, control 100

Row | SMILES | CrC (critical concentration) (purified tubulin) | IC50 ([1]; MCF7, Table 1) [µM] | IC50 ([2]; HT-29, Table 1) [µM] | G0/G1 (A-549 cells; A-549, 24 h, 75 μM) [%] | G2/M (A-549 cells; A-549, 24 h, 75 μM) [%] | S (A-549 cells; A-549, 24 h, 75 μM) [%] | Effect on the cell cycle (A-549 cells; [5]) | IC50 ([1]; MCF7, 48 h, Table 1) [µM] | IC50 ([2]; HT-29, 48 h, Table 1) [µM] | further results
1 | COc1ccc(/C=C\c2cc(OC)c(OC)c(OC)c2)cc1N [AmCA-4, 3′-aminocombretastatin A-4] | 23 ± 3 µM |  |  |  |  |  |  |  |  | G0/G1 (A-549 cells; A-549, 24 h, 0.125 µM): 26 ± 1%; G2/M (A-549 cells; A-549, 24 h, 0.125 µM): 59 ± 2%; S (A-549 cells; A-549, 24 h, 0.125 µM): 15 ± 2%; IC50 ([1]; MCF7, 48 h, Table 2): 0.008 ± 0.001 µM; IC50 ([2]; HT-29, 48 h, Table 2): 0.022 ± 0.001 µM; mrna remaining at 0.015 µM (c-Myc gene; [3]): 58%; mrna remaining at 0.015 µM (VEGF gene; [3]): 67%
2 | COc1ccc(/C=C\c2cc(OC)c(OC)c(OC)c2)cc1O [CA-4, combretastatin A-4] | 21.5 µM and 21.5 ± 0.8 µM | 1 ± 0.2 | 4.2 ± 0.5 |  |  |  |  |  |  | cells accumulated in the G2/M phase (A-549 cells; 24 h): 60%; G0/G1 (A-549 cells; A-549, 24 h, 0.05 μM): 25 ± 1%; G2/M (A-549 cells; A-549, 24 h, 0.05 μM): 60 ± 2%; S (A-549 cells; A-549, 24 h, 0.05 μM): 15 ± 1%; mrna remaining at 15 µM (c-Myc gene; [4]): 35%; mrna remaining at 15 µM (VEGF gene; [4]): 40%
3 | COc1ccc(/C=C\c2cc(OC)c(OC)c(OC)c2)cc1OCC(=O)NCC(=O)O [Compound 4.1] | 9.3 ± 0.4 µM |  |  | 68 | 20 | 12 | do not exert any significant effect on the cells | 6 ± 1 | 5 ± 1 | mrna remaining at 5 µM (c-Myc gene; [6]): 62%; mrna remaining at 5 µM (VEGF gene; [6]): 45%
4 | COc1ccc(/C=C\c2cc(OC)c(OC)c(OC)c2)cc1OCC(=O)N[C@H](C(=O)O)C(C)C [Compound 4.2] | 9.3 ± 0.3 µM | 7 ± 1 | 12 ± 5 |  |  |  |  |  |  | G0/G1 (A-549 cells; A-549, 24 h, 50 μM): 17 ± 2%; G2/M (A-549 cells; A-549, 24 h, 50 μM): 67 ± 4%; S (A-549 cells; A-549, 24 h, 50 μM): 16 ± 3%; cells accumulated in the G2/M phase (A-549 cells; A-549, 24 h, concentration per compound as in Tables 6 and 7, control 14%): 50–70%; mrna remaining at 25 µM (c-Myc gene; [7]): 71%; mrna remaining at 25 µM (VEGF gene; [7]): 89%
5 | COc1ccc(/C=C\c2cc(OC)c(OC)c(OC)c2)cc1OCC(=O)N[C@@H](CCSC)C(=O)O [Compound 4.9] | 8.6 ± 0.4 µM |  |  | 76 | 13 | 11 | do not exert any significant effect on the cells | 13 ± 2 | 32 ± 6 | downregulation of c-Myc gene expression (c-Myc gene; [8]): more than 55%; mrna remaining at 25 µM (c-Myc gene; [9]): 37%; downregulation of VEGF gene expression (VEGF gene; [8]): more than 55%; mrna remaining at 25 µM (VEGF gene; [9]): 37 to 55%
6 | COc1ccc(/C=C\c2cc(OC)c(OC)c(OC)c2)cc1OCC(=O)N[C@H](CC(C)C)C(=O)O [Compound 6.2] | 11 ± 3 µM |  |  | 85 ± 1 | 12 ± 1 | 3 ± 2 | do not exert any significant effect on the cells | 25 ± 2 | 47 ± 9 | mrna remaining at 25 µM (c-Myc gene; [9]): 68%; mrna remaining at 25 µM (VEGF gene; [9]): 40%
7 | COc1ccc(/C=C\c2cc(OC)c(OC)c(OC)c2)cc1OCC(=O)N[C@H](Cc1ccccc1)C(=O)O [Compound 6.3] | 9.2 ± 0.4 µM | 43 ± 3 | 27 ± 5 | 74 ± 3 | 14 ± 2 | 11 ± 6 | do not exert any significant effect on the cells |  |  | mrna remaining at 25 µM (c-Myc gene; [7]): 55%; mrna remaining at 25 µM (VEGF gene; [7]): 77%
